Results from patent US20250051338A1, “TYK2 DEGRADERS AND USES THEREOF” (Kymera Therapeutics, Inc., priority 2021, published 2025).

Columns and labels:
Type in all cases: cell-based
TYK2 [1] = molecular target: T1, TYK2 (Homo sapiens, UniProt P29597); assay: TYK2 degradation MSD assay in OCI-LY10 cells; parameters: endogenous in cells; host or cells: EBV-B cells; settings: 4 to 24 hours incubation, read-out: TYK2 MSD DC50 rating in OCI-LY10
Outline: (§1)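 TYK2 levels in lysed cells, detected via antibody capture and SULFO-TAG electrochemiluminescence, were compared across a nine-point threefold compound dilution (highest 1 to 10 μM) after 4–24 h culture at 37° C under 5% CO2. Four-parameter nonlinear regression of the dose response yielded DC50.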

TYK2 [2] = molecular target: T1, TYK2; assay: TYK2 degradation MSD assay in EBV-B cells; parameters: endogenous in cells; host or cells: EBV-B cells; settings: 4 to 24 hours incubation, read-out: TYK2 MSD DC50 rating in EBV-B
Outline: as §1

TYK2 [3] = molecular target: T1, TYK2; assay: TYK2 degradation MSD assay in human PBMC cells; parameters: endogenous in cells; host or cells: human PBMC; settings: 4 to 24 hours incubation, read-out: TYK2 MSD DC50 rating in human PBMC
Outline: as §1

T1 sequence (P29597 whole entry): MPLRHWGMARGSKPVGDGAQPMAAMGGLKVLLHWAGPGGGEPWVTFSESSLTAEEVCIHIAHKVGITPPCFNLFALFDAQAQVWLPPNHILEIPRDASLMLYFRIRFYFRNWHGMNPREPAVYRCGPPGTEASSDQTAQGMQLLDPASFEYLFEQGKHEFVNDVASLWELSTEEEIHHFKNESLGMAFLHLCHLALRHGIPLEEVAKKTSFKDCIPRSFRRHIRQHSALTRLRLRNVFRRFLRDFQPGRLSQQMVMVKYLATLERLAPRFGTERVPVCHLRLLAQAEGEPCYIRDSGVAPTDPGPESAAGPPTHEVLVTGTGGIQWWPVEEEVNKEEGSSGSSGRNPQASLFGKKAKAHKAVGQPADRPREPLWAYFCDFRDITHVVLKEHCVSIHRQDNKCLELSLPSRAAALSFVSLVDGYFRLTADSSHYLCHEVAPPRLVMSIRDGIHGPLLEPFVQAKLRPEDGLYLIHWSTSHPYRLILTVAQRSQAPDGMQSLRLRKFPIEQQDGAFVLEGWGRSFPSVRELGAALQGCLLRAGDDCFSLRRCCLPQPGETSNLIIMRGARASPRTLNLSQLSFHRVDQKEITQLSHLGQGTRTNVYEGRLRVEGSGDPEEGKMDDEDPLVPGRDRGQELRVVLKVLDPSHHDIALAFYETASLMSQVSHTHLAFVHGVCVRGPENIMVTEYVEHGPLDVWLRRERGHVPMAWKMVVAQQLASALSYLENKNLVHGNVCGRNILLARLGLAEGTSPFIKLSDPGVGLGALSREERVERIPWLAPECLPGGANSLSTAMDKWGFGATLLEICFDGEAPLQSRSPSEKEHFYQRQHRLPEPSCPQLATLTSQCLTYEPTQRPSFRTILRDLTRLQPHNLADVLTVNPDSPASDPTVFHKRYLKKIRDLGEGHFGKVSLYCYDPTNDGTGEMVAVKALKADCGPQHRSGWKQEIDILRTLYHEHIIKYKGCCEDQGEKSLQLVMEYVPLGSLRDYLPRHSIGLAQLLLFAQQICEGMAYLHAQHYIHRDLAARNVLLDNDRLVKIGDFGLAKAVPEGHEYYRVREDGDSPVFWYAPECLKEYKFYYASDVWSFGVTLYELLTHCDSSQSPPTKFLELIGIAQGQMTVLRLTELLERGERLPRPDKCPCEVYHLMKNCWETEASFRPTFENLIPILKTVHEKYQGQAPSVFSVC

Structure (SMILES)	DC50 (TYK2 [1])	DC50 (TYK2 [2])	DC50 (TYK2 [3])
CNc1cc(Nc2cccn(-c3ccc(C(=O)N4CCC(N5CC(N6CCN(c7ccc8c(c7)n(C)c(=O)n8C7CCC(=O)NC7=O)CC6)C5)CC4)cn3)c2=O)nn2c(C(=O)N[C@@H]3C[C@@H]3F)cnc12 (stereo partly drawn) [Example K381]	< 0.001 µM	< 0.001 µM	> 0.1 µM
CNc1cc(Nc2cccn(C3CCN(C(=O)NCCCCCCCCCCc4ccc5c(c4)n(C)c(=O)n5C4CCC(=O)NC4=O)CC3)c2=O)nn2c(C(=O)N[C@@H]3C[C@@H]3F)cnc12 (stereo partly drawn) [Example K399]	> 0.1 µM	0.001 to 0.01 µM	> 0.1 µM
CNC(=O)c1cnc(Nc2cc(CN3CCN(c4cccc5c4n(C)c(=O)n5C4CCC(=O)NC4=O)CC3)ccn2)cc1Nc1cccc(-c2ncc(F)cn2)c1OC (stereo not drawn) [Example K176]	> 0.1 µM	0.001 to 0.01 µM	< 0.001 µM
Cn1c(=O)n(C2CCC(=O)NC2=O)c2ccc(CCOCCOCCNc3cc(Nc4cccn(-c5ccccn5)c4=O)nn4c(C(=O)N[C@@H]5C[C@@H]5F)cnc34)cc21 (stereo partly drawn) [Example K201]	> 0.1 µM	> 0.1 µM	> 0.1 µM
CNc1cc(Nc2cccn(-c3cc(C(=O)NCCCCCCCCCCc4ccc5c(c4)n(C)c(=O)n5C4CCC(=O)NC4=O)ccn3)c2=O)nn2c(C(=O)N[C@@H]3C[C@@H]3F)cnc12 (stereo partly drawn) [Example K233]	> 0.1 µM	0.001 to 0.01 µM	0.001 to 0.01 µM
CNc1cc(Nc2cccc(C(=O)NCCCCc3ccc4c(c3)n(C)c(=O)n4C3CCC(=O)NC3=O)c2)nn2c(C(=O)N[C@@H]3C[C@@H]3F)cnc12 (stereo partly drawn) [Example K247]	> 0.1 µM	> 0.1 µM	> 0.1 µM
CNC(=O)c1cnc(Nc2ccc(CN3CCC(c4cccc5c4n(C)c(=O)n5C4CCC(=O)NC4=O)C3)cn2)cc1Nc1cccc(-c2ncc(F)cn2)c1OC (stereo not drawn) [Example K165]	> 0.1 µM	0.001 to 0.01 µM	> 0.1 µM
CNc1cc(-c2cccc(C(=O)NCCCCCCCCc3cccc4c3n(C)c(=O)n4C3CCC(=O)NC3=O)c2)nn2c(C(=O)N[C@@H]3C[C@@H]3F)cnc12 (stereo partly drawn) [Example K310]	> 0.1 µM	> 0.1 µM	> 0.1 µM
CNc1cc(Nc2cccn(-c3cccc(C(=O)NCCCCc4ccc5c(c4)n(C)c(=O)n5C4CCC(=O)NC4=O)c3)c2=O)nn2c(C(=O)N[C@@H]3C[C@@H]3F)cnc12 (stereo partly drawn) [Example K219]	> 0.1 µM	> 0.1 µM	0.001 to 0.01 µM
CNC(=O)c1cnc(Nc2ccc(CN3CCC(N(C)c4ccc5c(c4)n(C)c(=O)n5C4CCC(=O)NC4=O)C3)cn2)cc1Nc1cccc(-c2ncc(F)cn2)c1OC (stereo not drawn) [Example K164]	> 0.1 µM	< 0.001 µM	> 0.1 µM
CNc1cc(Nc2cccn(-c3ccc(CNCc4ccc(N5CCC(N6CCC(c7ccc8c(c7)n(C)c(=O)n8C7CCC(=O)NC7=O)C6)CC5)cc4)cn3)c2=O)nn2c(C(=O)N[C@@H]3C[C@@H]3F)cnc12 (stereo partly drawn) [Example K437]	< 0.001 µM	> 0.1 µM	> 0.1 µM
CNc1cc(-c2cnn(C3CN(C(=O)NCCCCCCc4ccc5c(c4)n(C)c(=O)n5C4CCC(=O)NC4=O)C3)c2)nn2c(C(=O)N[C@@H]3C[C@@H]3F)cnc12 (stereo partly drawn) [Example K315]	> 0.1 µM	> 0.1 µM	> 0.1 µM
CNC(=O)c1cnc(Nc2ccc(C(=O)NCCCCCCCCc3ccc4c(c3)n(C)c(=O)n4C3CCC(=O)NC3=O)cn2)cc1Nc1cccc(-c2ncc(F)cn2)c1OC (stereo not drawn) [Example K111]	> 0.1 µM	0.001 to 0.01 µM	< 0.001 µM
CNC(=O)c1cnc(Nc2ccc(C(=O)NCCCCc3cccc4c3n(C)c(=O)n4C3CCC(=O)NC3=O)cn2)cc1Nc1cccc(-c2ncc(F)cn2)c1OC (stereo not drawn) [Example K114]	< 0.001 µM	0.001 to 0.01 µM	< 0.001 µM
CNc1cc(-c2cccc(C(=O)NCCCCc3ccc4c(c3)n(C)c(=O)n4C3CCC(=O)NC3=O)c2)nn2c(C(=O)N[C@@H]3C[C@@H]3F)cnc12 (stereo partly drawn) [Example K307]	> 0.1 µM	> 0.1 µM	> 0.1 µM
CNC(=O)c1cnc(Nc2ccc(CN(C)C3CCN(c4cccc5c4n(C)c(=O)n5C4CCC(=O)NC4=O)CC3)cn2)cc1Nc1cccc(-c2ncc(F)cn2)c1OC (stereo not drawn) [Example K704]	< 0.001 µM	< 0.001 µM	> 0.1 µM
CNc1cc(Nc2cccc(N3CCC(CN4CCN(c5ccc(-c6ccc7c(c6)n(C)c(=O)n7C6CCC(=O)NC6=O)cc5)CC4)CC3)c2OC)nn2c(C(=O)N[C@@H]3C[C@@H]3F)cnc12 (stereo partly drawn) [Example K619]	0.001 to 0.01 µM	> 0.1 µM	> 0.1 µM
CNc1cc(Nc2cccc(C3CCN(CCc4cccc5c4n(C)c(=O)n5C4CCC(=O)NC4=O)CC3)c2)nn2c(C(=O)N[C@@H]3C[C@@H]3F)cnc12 (stereo partly drawn) [Example K641]	> 0.1 µM	> 0.1 µM	> 0.1 µM

Structure (SMILES)	DC50 (TYK2 [1])	DC50 (TYK2 [2])	DC50 (TYK2 [3])
CNc1cc(Nc2cccc(N3CCC(CN4CCC(C#Cc5cccc6c5n(C)c(=O)n6C5CCC(=O)NC5=O)CC4)CC3)c2)nn2c(C(=O)N[C@@H]3C[C@@H]3F)cnc12 (stereo partly drawn) [Example K465]	0.001 to 0.01 µM	> 0.1 µM	> 0.1 µM
CNc1cc(Nc2cccc(-c3ccc(CN4CCN(CCCOc5ccc(C6CCC(=O)NC6=O)cc5)CC4)cn3)c2)nn2c(C(=O)N[C@@H]3C[C@@H]3F)cnc12 (stereo partly drawn) [Example K504]	> 0.1 µM	< 0.001 µM	> 0.1 µM
CNc1cc(C2CCCN(C(=O)CCCCCCCc3ccc4c(c3)n(C)c(=O)n4C3CCC(=O)NC3=O)C2)nn2c(C(=O)N[C@@H]3C[C@@H]3F)cnc12 (stereo partly drawn) [Example K304]	> 0.1 µM	> 0.1 µM	> 0.1 µM
CNc1cc(Nc2cccc(CN(C)C3CCN(c4ccc5c(c4)n(C)c(=O)n5C4CCC(=O)NC4=O)CC3)c2)nn2c(C(=O)NC3CC3)cnc12 (stereo not drawn) [Example K593]	> 0.1 µM	> 0.1 µM	> 0.1 µM
Cn1c(=O)n(C2CCC(=O)NC2=O)c2ccc(CCCCC(=O)N3CCC(n4cc(-c5ccc6ncc(C(=O)N[C@@H]7C[C@@H]7F)n6n5)cn4)CC3)cc21 (stereo partly drawn) [Example K327]	> 0.1 µM	> 0.1 µM	> 0.1 µM
CNc1cc(Nc2cccc(-c3ccc(CN4CC5(CCN(c6cccc7c6n(C)c(=O)n7C6CCC(=O)NC6=O)CC5)C4)cn3)c2)nn2c(C(=O)N[C@@H]3C[C@@H]3F)cnc12 (stereo partly drawn) [Example K510]	< 0.001 µM	0.001 to 0.01 µM	> 0.1 µM
CNC(=O)c1cnc(Nc2ccc(C3CN(Cc4cccc5c4n(C)c(=O)n5C4CCC(=O)NC4=O)C3)cn2)cc1Nc1cccc(-c2ncc(F)cn2)c1OC (stereo not drawn) [Example K703]	> 0.1 µM	< 0.001 µM	> 0.1 µM
CNc1cc(Nc2cccnc2OC2CCN(CCN3CCN(c4ccc5c(c4)n(C)c(=O)n5C4CCC(=O)NC4=O)CC3)CC2)nn2c(C(=O)N[C@@H]3C[C@@H]3F)cnc12 (stereo partly drawn) [Example K531]	0.001 to 0.01 µM	> 0.1 µM	> 0.1 µM
CNc1cc(-c2cnn(C3CCN(C(=O)NCCCCc4cccc5c4n(C)c(=O)n5C4CCC(=O)NC4=O)CC3)c2)nn2c(C(=O)N[C@@H]3C[C@@H]3F)cnc12 (stereo partly drawn) [Example K295]	> 0.1 µM	> 0.1 µM	> 0.1 µM
CNc1cc(Nc2cccc(CN3CCC(c4cccc5c4n(C)c(=O)n5C4CCC(=O)NC4=O)CC3)c2)nn2c(C(=O)NC3CC3)cnc12 (stereo not drawn) [Example K578]	> 0.1 µM	> 0.1 µM	> 0.1 µM
CNc1cc(Nc2cccn(-c3ccc(C(=O)NCCOCCOCCOCCOCCOCCOCCc4cccc5c4n(C)c(=O)n5C4CCC(=O)NC4=O)cn3)c2=O)nn2c(C(=O)N[C@@H]3C[C@@H]3F)cnc12 (stereo partly drawn) [Example K217]	> 0.1 µM	0.01 to 0.1 µM	0.01 to 0.1 µM
CNc1cc(N2CCc3c(-c4ccc(C(=O)N5CCC(CN6CCN(c7ccc(-c8ccc9c(c8)n(C)c(=O)n9C8CCC(=O)NC8=O)cc7)CC6)CC5)cn4)cccc32)nn2c(C(=O)N[C@@H]3C[C@@H]3F)cnc12 (stereo partly drawn) [Example K627]	< 0.001 µM	> 0.1 µM	> 0.1 µM
CNc1cc(Nc2ccccc2C(=O)NCCCCCCc2ccc3c(c2)n(C)c(=O)n3C2CCC(=O)NC2=O)nn2c(C(=O)N[C@@H]3C[C@@H]3F)cnc12 (stereo partly drawn) [Example K255]	> 0.1 µM	> 0.1 µM	< 0.001 µM
CNc1cc(Oc2cnn(C3CCN(CC4CCN(c5ccc(-c6ccc7c(c6)n(C)c(=O)n7C6CCC(=O)NC6=O)cc5)CC4)CC3)c2)nn2c(C(=O)N[C@@H]3C[C@@H]3F)cnc12 (mixture of isomers) [Example K547]	> 0.1 µM	> 0.1 µM	> 0.1 µM
CNC(=O)c1cnc(Nc2ccc(CN(C)CCCOC3CC(c4cccc5c4n(C)c(=O)n5C4CCC(=O)NC4=O)C3)cn2)cc1Nc1cccc(-c2ncc(F)cn2)c1OC (stereo not drawn) [Example K158]	> 0.1 µM	< 0.001 µM	> 0.1 µM
CNc1cc(Nc2cccc(CN(C)C3CCN(c4cccc5c4n(C)c(=O)n5C4CCC(=O)NC4=O)CC3)c2)nn2c(C(=O)NC3CC3)cnc12 (stereo not drawn) [Example K597]	> 0.1 µM	> 0.1 µM	> 0.1 µM
CNc1cc(Nc2cccc(-c3ccc(CN4CCN(C5CCC(c6ccc(-c7ccc8c(c7)n(C)c(=O)n8C7CCC(=O)NC7=O)cc6)CC5)CC4)cn3)c2OC)nn2c(C(=O)N[C@@H]3C[C@@H]3F)cnc12 (stereo partly drawn) [Example K567]	< 0.001 µM	> 0.1 µM	> 0.1 µM
CNc1cc(-c2cnn(C3CCC(CN(C)C4CCN(c5ccc6c(c5)n(C)c(=O)n6C5CCC(=O)NC5=O)CC4)CC3)c2)nn2c(C(=O)N[C@@H]3C[C@@H]3F)cnc12 (stereo partly drawn) [Example K361]	> 0.1 µM	> 0.1 µM	> 0.1 µM
